In the NIST ThermoML archive (doi:10.1021/je900691n):

Assay: xn = mol fraction of the nth substance listed
Settings: Liquid, Pycnometric method

COC(=O)OC [dimethyl carbonate] + O=C=O
mass density [kg/m3]
Settings | 308.15 K | 313.15 K
6160 kPa, x1 = 0.1484 | 926 | –
6420 kPa, x1 = 0.118 | 904 | –
6750 kPa, x1 = 0.086 | 864 | –
6760 kPa, x1 = 0.1484 | 931 | –
6780 kPa, x1 = 0.1484 | – | 905
6900 kPa, x1 = 0.118 | 909 | –
7020 kPa, x1 = 0.118 | – | 880
7160 kPa, x1 = 0.0481 | 787 | –
7260 kPa, x1 = 0.1484 | 936 | –
7280 kPa, x1 = 0.1484 | – | 909
7340 kPa, x1 = 0.086 | – | 834
7500 kPa, x1 = 0.118 | – | 886
7520 kPa, x1 = 0.0242 | 697 | –
7620 kPa, x1 = 0.0481 | 800 | –
7630 kPa, x1 = 0.0242 | 705 | –
7680 kPa, x1 = 0.118 | 917 | –
7730 kPa, x1 = 0.1484 | 939 | –
7780 kPa, x1 = 0.0242 | 718 | –
7780 kPa, x1 = 0.1484 | – | 914
7850 kPa, x1 = 0.0481 | – | 740
7940 kPa, x1 = 0.086 | 881 | –
7990 kPa, x1 = 0.0242 | 731 | –
8050 kPa, x1 = 0.0481 | – | 748
8050 kPa, x1 = 0.118 | – | 893
8200 kPa, x1 = 0.118 | 922 | –
8220 kPa, x1 = 0.0242 | – | 606
8230 kPa, x1 = 0.0242 | 744 | –
8230 kPa, x1 = 0.0481 | 816 | –
8250 kPa, x1 = 0.0242 | – | 613
8250 kPa, x1 = 0.1484 | 943 | –
8260 kPa, x1 = 0.0481 | – | 757
8290 kPa, x1 = 0.0242 | – | 622
8290 kPa, x1 = 0.1484 | – | 918
8350 kPa, x1 = 0.086 | – | 852
8380 kPa, x1 = 0.0242 | – | 636
8480 kPa, x1 = 0.0242 | 755 | –
8490 kPa, x1 = 0.0242 | – | 650
8510 kPa, x1 = 0.0481 | – | 767
8590 kPa, x1 = 0.0242 | – | 665
8730 kPa, x1 = 0.086 | 890 | –
8740 kPa, x1 = 0.0481 | 827 | –
8760 kPa, x1 = 0.0242 | – | 681
8760 kPa, x1 = 0.1484 | – | 922
8780 kPa, x1 = 0.1484 | 947 | –
8790 kPa, x1 = 0.086 | – | 859
8870 kPa, x1 = 0.0242 | 770 | –
8920 kPa, x1 = 0.0242 | – | 692
8930 kPa, x1 = 0.0481 | – | 780
9000 kPa, x1 = 0.118 | – | 903
9030 kPa, x1 = 0.118 | 929 | –
9110 kPa, x1 = 0.0242 | – | 705
9180 kPa, x1 = 0.0242 | 780 | –
9250 kPa, x1 = 0.0481 | 837 | –
9250 kPa, x1 = 0.086 | – | 865
9250 kPa, x1 = 0.1484 | – | 926
9260 kPa, x1 = 0.1484 | 950 | –
9420 kPa, x1 = 0.0242 | – | 721
9480 kPa, x1 = 0.0481 | – | 795
9630 kPa, x1 = 0.0242 | – | 731
9630 kPa, x1 = 0.086 | 900 | –
9640 kPa, x1 = 0.0242 | 792 | –
9650 kPa, x1 = 0.118 | – | 910
9670 kPa, x1 = 0.118 | 935 | –
9690 kPa, x1 = 0.0481 | 844 | –
9720 kPa, x1 = 0.086 | – | 871
9740 kPa, x1 = 0.1484 | 953 | –
9770 kPa, x1 = 0.1484 | – | 930
9920 kPa, x1 = 0.0242 | 799 | –
9960 kPa, x1 = 0.0242 | – | 744
9960 kPa, x1 = 0.0481 | – | 807
10120 kPa, x1 = 0.0481 | 852 | –
10130 kPa, x1 = 0.086 | 905 | 876
10180 kPa, x1 = 0.0242 | 806 | –
10230 kPa, x1 = 0.1484 | 956 | –
10240 kPa, x1 = 0.1484 | – | 934
10280 kPa, x1 = 0.0242 | – | 755
10300 kPa, x1 = 0.118 | – | 916
10420 kPa, x1 = 0.0481 | – | 816
10530 kPa, x1 = 0.0481 | 858 | –
10580 kPa, x1 = 0.0242 | – | 765
10600 kPa, x1 = 0.0242 | 814 | –
10600 kPa, x1 = 0.118 | 942 | –
10740 kPa, x1 = 0.1484 | – | 937
10770 kPa, x1 = 0.1484 | 960 | –
10870 kPa, x1 = 0.086 | – | 885
10930 kPa, x1 = 0.086 | 913 | –
10980 kPa, x1 = 0.0242 | – | 775
11010 kPa, x1 = 0.0242 | 822 | –
11010 kPa, x1 = 0.0481 | – | 827
11010 kPa, x1 = 0.118 | – | 922
11080 kPa, x1 = 0.0481 | 865 | –
11120 kPa, x1 = 0.086 | – | 888
11180 kPa, x1 = 0.118 | 946 | –
11230 kPa, x1 = 0.1484 | 962 | –
11280 kPa, x1 = 0.1484 | – | 941
11290 kPa, x1 = 0.0242 | 828 | –
11340 kPa, x1 = 0.086 | 917 | –
11400 kPa, x1 = 0.0242 | – | 785
11430 kPa, x1 = 0.0481 | – | 834
11500 kPa, x1 = 0.0481 | 871 | –
11550 kPa, x1 = 0.118 | – | 927
11710 kPa, x1 = 0.086 | – | 893
11740 kPa, x1 = 0.0242 | – | 793
11740 kPa, x1 = 0.1484 | 966 | –
11750 kPa, x1 = 0.0242 | 836 | –
11770 kPa, x1 = 0.1484 | – | 944
11800 kPa, x1 = 0.086 | 921 | –
11950 kPa, x1 = 0.0481 | – | 842
12020 kPa, x1 = 0.0242 | 839 | –
12030 kPa, x1 = 0.118 | – | 930
12040 kPa, x1 = 0.0481 | 878 | –
12080 kPa, x1 = 0.0242 | – | 801
12130 kPa, x1 = 0.086 | – | 898
12210 kPa, x1 = 0.086 | 924 | –
12230 kPa, x1 = 0.1484 | 969 | –
12300 kPa, x1 = 0.118 | 954 | –
12330 kPa, x1 = 0.1484 | – | 948
12420 kPa, x1 = 0.0242 | 846 | –
12450 kPa, x1 = 0.0481 | – | 849
12520 kPa, x1 = 0.0242 | – | 809
12530 kPa, x1 = 0.0481 | 883 | –
12700 kPa, x1 = 0.086 | – | 903
12700 kPa, x1 = 0.118 | – | 935
12740 kPa, x1 = 0.1484 | 971 | –
12780 kPa, x1 = 0.0242 | 852 | –
12850 kPa, x1 = 0.086 | 929 | –
12970 kPa, x1 = 0.0481 | 888 | –
13270 kPa, x1 = 0.1484 | 975 | –
13350 kPa, x1 = 0.086 | 934 | –
13660 kPa, x1 = 0.0481 | 895 | –
13820 kPa, x1 = 0.1484 | 978 | –
13850 kPa, x1 = 0.086 | 937 | –
14140 kPa, x1 = 0.086 | 939 | –
14270 kPa, x1 = 0.1484 | 980 | –
14460 kPa, x1 = 0.0481 | 903 | –
14760 kPa, x1 = 0.086 | 944 | –
15030 kPa, x1 = 0.1484 | 984 | –
15060 kPa, x1 = 0.068 | 946 | –
15240 kPa, x1 = 0.0481 | 911 | –
15490 kPa, x1 = 0.068 | 949 | –
15690 kPa, x1 = 0.1484 | 987 | –
16010 kPa, x1 = 0.068 | 953 | –
16350 kPa, x1 = 0.1484 | 990 | –
